According to ChEMBL document CHEMBL5370557, “Structure-based discovery of IHMT-IDH1-053 as a potent irreversible IDH1 mutant selective inhibitor” (Eur J Med Chem, 2023):
The source made the active and inactive calls. The calls are words filed in the database; no cut-off is given here.

Columns and labels:
[1] = biological target: T1, Isocitrate dehydrogenase [NADP] cytoplasmic (Homo sapiens, UniProt O75874, R132H); test: Inhibition of IDH1 R132H mutant (unknown origin) expressed in Escherichia coli BL21 (DE3) assessed as NADPH consumption using alpha-KG as substrate measured after 60 mins
HT-1080 = test: Antiproliferative activity against human HT-1080 cells assessed as cell viability at 0.3 to 10 uM treated for 2 hrs followed by compound removal after 72 hrs by CellTiter-Glo assay; type: functional, cell-based; details: dose 0.3-10 µM
[2] = biological target: T1, Isocitrate dehydrogenase [NADP] cytoplasmic; test: Reversible binding affinity to IDH1 R132H mutant (unknown origin) expressed in Escherichia coli BL21 (DE3) assessed as inhibition constant
[3] = tested on: Acute myeloid leukemic cell; test: Antiproliferative activity against human primary AML cells expressing IDH1-R132 mutant assessed as cell viability at 0.3 to 10 uM treated for 2 hrs followed by compound removal after 72 hrs by CellTiter-Glo assay; type: functional, cell-based; details: dose 0.3-10 µM
[4] = Half life in Sprague-Dawley rat at 10 mg/kg, po measured upto 24 hrs by LC-MS/MS analysis; type: ADME, organism-based; details: in vivo
[5] = Tmax in Sprague-Dawley rat at 10 mg/kg, po measured upto 24 hrs by LC-MS/MS analysis; type: ADME, organism-based; details: in vivo
[6] = biological target: Isocitrate dehydrogenase [NADP], mitochondrial (Homo sapiens, UniProt P48735, R172K); test: Inhibition of IDH2 R172K mutant (unknown origin) expressed in Escherichia coli BL21 (DE3) assessed as NADPH consumption using alpha-KG as substrate measured after 60 mins
[7] = biological target: Isocitrate dehydrogenase [NADP], mitochondrial (Homo sapiens, UniProt P48735, R140Q); test: Inhibition of IDH2 R140Q mutant (unknown origin) expressed in Escherichia coli BL21 (DE3) assessed as NADPH consumption using alpha-KG as substrate measured after 60 mins
[8] = Cmax in Sprague-Dawley rat at 1 mg/kg, iv measured upto 24 hrs by LC-MS/MS analysis; type: ADME, organism-based; design: dose 1 mg/kg, time < 24 hrs, route iv; details: in vivo
[9] = tested on: Isocitrate dehydrogenase [NADP] cytoplasmic (Homo sapiens), O75874 [R132H]; test: Binding affinity to IDH1 R132H mutant (unknown origin) expressed in Escherichia coli BL21 (DE3) assessed as ratio of Kinact/Ki
[10] = biological target: Isocitrate dehydrogenase [NADP] cytoplasmic (Homo sapiens, UniProt O75874); test: Inhibition of wild type IDH1 (unknown origin) expressed in Escherichia coli BL21 (DE3) assessed as NADPH consumption using alpha-KG as substrate measured after 60 mins
[11] = biological target: T1, Isocitrate dehydrogenase [NADP] cytoplasmic; test: Inhibition of IDH1 R132H mutant (unknown origin) expressed in HEK293T cells assessed as inhibition of 2-HG generation measured after 48 hrs by LC-MS/MS analysis; type: cell-based
[12] = Apparent volume of distribution in Sprague-Dawley rat at 1 mg/kg, iv measured upto 24 hrs by LC-MS/MS analysis; type: ADME, organism-based; details: in vivo, read-out: Vz
[13] = Cmax in Sprague-Dawley rat at 10 mg/kg, po measured upto 24 hrs by LC-MS/MS analysis; type: ADME, organism-based; design: time < 24 hrs, dose 10 mg/kg, route po; details: in vivo
[14] = biological target: T2, Isocitrate dehydrogenase [NADP], mitochondrial (Homo sapiens, UniProt P48735); test: Inhibition of wild type IDH2 (unknown origin) expressed in Escherichia coli BL21 (DE3) assessed as NADPH consumption using alpha-KG as substrate measured after 60 mins
T2 sequence (P48735 whole entry): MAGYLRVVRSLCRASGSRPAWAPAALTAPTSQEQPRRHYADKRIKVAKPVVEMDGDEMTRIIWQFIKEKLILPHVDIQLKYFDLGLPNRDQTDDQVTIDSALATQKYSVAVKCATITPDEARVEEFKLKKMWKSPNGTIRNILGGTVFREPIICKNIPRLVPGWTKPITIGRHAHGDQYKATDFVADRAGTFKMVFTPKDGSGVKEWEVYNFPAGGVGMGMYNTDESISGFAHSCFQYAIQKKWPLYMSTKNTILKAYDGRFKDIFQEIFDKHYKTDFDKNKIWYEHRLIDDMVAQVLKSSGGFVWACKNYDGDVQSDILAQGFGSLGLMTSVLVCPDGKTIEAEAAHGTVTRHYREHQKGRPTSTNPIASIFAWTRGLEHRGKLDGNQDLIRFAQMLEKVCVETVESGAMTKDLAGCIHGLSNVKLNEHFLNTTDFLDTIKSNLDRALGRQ

[15] = In vivo inhibition of IDH1 mutant activity in tumor of human HT-1080 cells xenografted in Balb/c mouse model assessed as reduction in 2-HG level at […], ip single administration measured upto 2 hrs relative to control; type: functional
[16] = AUC (0 to t) in Sprague-Dawley rat at 1 mg/kg, iv measured upto 24 hrs by LC-MS/MS analysis; type: ADME, organism-based; design: dose 1 mg/kg, time < 24 hrs, route iv; details: in vivo
[17] = Half life in Sprague-Dawley rat at 1 mg/kg, iv measured upto 24 hrs by LC-MS/MS analysis; type: ADME, organism-based; details: in vivo
[18] = Apparent volume of distribution in Sprague-Dawley rat at 10 mg/kg, po measured upto 24 hrs by LC-MS/MS analysis; type: ADME, organism-based; details: in vivo
[19] = tested on: Isocitrate dehydrogenase [NADP] cytoplasmic (Homo sapiens), O75874 [R132H]; test: Binding affinity to IDH1 R132H mutant (unknown origin) expressed in Escherichia coli BL21 (DE3) assessed as inactivation constant
[20] = biological target: Isocitrate dehydrogenase [NADP] cytoplasmic (Homo sapiens, UniProt O75874, R132C); test: Inhibition of IDH1 R132C mutant (unknown origin) expressed in Escherichia coli BL21 (DE3) assessed as NADPH consumption using alpha-KG as substrate measured after 60 mins
[21] = AUC (0 to t) in Sprague-Dawley rat at 10 mg/kg, po measured upto 24 hrs by LC-MS/MS analysis; type: ADME, organism-based; design: time < 24 hrs, dose 10 mg/kg, route po; details: in vivo
[22] = Clearance in Sprague-Dawley rat at 10 mg/kg, po measured upto 24 hrs by LC-MS/MS analysis; type: ADME, organism-based; details: in vivo
[23] = Oral bioavailability in Sprague-Dawley rat at 10 mg/kg measured upto 24 hrs by LC-MS/MS analysis; type: ADME, organism-based; details: in vivo
[24] = Tmax in Sprague-Dawley rat at 1 mg/kg, iv measured upto 24 hrs by LC-MS/MS analysis; type: ADME, organism-based; details: in vivo

T1 sequence (O75874 2-414 R132H limits assumed): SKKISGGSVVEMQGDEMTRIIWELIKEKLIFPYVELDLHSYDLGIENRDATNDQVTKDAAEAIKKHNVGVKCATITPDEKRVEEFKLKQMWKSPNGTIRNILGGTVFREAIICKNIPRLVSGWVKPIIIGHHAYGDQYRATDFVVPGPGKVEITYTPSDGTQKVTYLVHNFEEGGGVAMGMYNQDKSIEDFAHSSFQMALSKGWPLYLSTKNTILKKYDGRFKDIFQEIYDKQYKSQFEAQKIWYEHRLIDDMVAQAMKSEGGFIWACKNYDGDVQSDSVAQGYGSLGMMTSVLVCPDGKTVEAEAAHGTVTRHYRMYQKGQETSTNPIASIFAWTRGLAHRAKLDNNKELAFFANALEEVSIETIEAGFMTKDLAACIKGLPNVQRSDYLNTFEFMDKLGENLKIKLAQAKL
Isocitrate dehydrogenase [NADP] cytoplasmic (Homo sapiens), O75874 [R132H], sequence (O75874 whole entry R132H): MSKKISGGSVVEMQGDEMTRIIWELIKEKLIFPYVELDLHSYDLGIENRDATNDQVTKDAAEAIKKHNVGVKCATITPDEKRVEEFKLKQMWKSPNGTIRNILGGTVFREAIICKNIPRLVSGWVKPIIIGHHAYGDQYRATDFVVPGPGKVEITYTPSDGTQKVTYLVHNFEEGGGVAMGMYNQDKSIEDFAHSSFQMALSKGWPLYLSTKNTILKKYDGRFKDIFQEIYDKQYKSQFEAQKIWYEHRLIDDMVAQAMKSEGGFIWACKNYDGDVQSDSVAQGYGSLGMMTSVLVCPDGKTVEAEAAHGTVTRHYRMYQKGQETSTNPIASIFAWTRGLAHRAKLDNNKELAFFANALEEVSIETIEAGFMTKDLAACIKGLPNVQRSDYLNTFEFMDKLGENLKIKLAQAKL
Isocitrate dehydrogenase [NADP], mitochondrial (Homo sapiens, UniProt P48735, R172K), sequence (P48735 40-452 R172K limits assumed): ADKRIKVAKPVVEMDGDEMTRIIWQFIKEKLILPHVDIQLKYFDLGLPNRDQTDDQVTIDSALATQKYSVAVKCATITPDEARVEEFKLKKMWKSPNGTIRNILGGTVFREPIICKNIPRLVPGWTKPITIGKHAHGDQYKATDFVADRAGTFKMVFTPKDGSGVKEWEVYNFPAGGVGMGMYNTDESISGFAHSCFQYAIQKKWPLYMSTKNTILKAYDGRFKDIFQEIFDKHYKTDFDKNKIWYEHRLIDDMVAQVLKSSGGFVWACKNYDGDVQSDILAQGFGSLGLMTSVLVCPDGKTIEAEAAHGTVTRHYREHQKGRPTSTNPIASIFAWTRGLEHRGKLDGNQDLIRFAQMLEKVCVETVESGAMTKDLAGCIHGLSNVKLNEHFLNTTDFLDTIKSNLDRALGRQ
Isocitrate dehydrogenase [NADP], mitochondrial (Homo sapiens, UniProt P48735, R140Q), sequence (P48735 40-452 R140Q limits assumed): as the sequence (P48735 40-452 R172K limits assumed) above, with R101Q, K133R counted along it
Isocitrate dehydrogenase [NADP] cytoplasmic (Homo sapiens, UniProt O75874, R132C), sequence (O75874 2-414 R132C limits assumed): as the sequence (O75874 2-414 R132H limits assumed) above, with H131C counted along it
Isocitrate dehydrogenase [NADP] cytoplasmic (Homo sapiens, UniProt O75874), sequence (O75874 whole entry): as the sequence (O75874 whole entry R132H) above, with H132R counted along it

C=CC(=O)Nc1ccc(Nc2ccc([C@H](C)Nc3ccc(C#N)cn3)cc2)cc1N(C)C
IC50 [1]: 6130 nM

C=CS(=O)(=O)NC1CCN(c2ccc([C@H](C)Nc3ncc(F)c(N4C(=O)OC[C@@H]4C(C)C)n3)cc2)CC1
Activity (HT-1080): Active
Ki [2]: 37 nM
Activity [3]: Active
half-life [4]: 18 min
Tmax [5]: 15 min
IC50 [6]: > 10000 nM
IC50 [7]: > 10000 nM
Cmax [8]: 199.67 ng/mL
Ratio [9]: 0.007 µM⁻¹ s⁻¹
IC50 [1]: 4.7 nM
IC50 [10]: > 10000 nM
IC50 [11]: 28 nM
Vd [12]: 5.39 L/kg
Cmax [13]: 88.1 ng/mL
IC50 [14]: > 10000 nM
inhibition (INH) [15]: >85%
AUCt [16]: 267.61 ng·h/mL
t1/2 [17]: 9.6 min
Vz [18]: 118.878 L/kg
Kinact [19]: 0.015 min⁻¹
IC50 [20]: 139 nM
AUCt [21]: 36.31 ng·h/mL
CL/F [22]: 260 L/h/kg
F [23]: 9.26%
Tmax [24]: 1.8 min

CCS(=O)(=O)NC1CCN(c2ccc([C@H](C)Nc3ncc(C#N)cn3)cc2)CC1
IC50 [1]: 3490 nM

C=CS(=O)(=O)Nc1ccc(Nc2ccc([C@H](C)Nc3ncc(F)c(N4C(=O)OC[C@@H]4C(C)C)n3)cc2)cc1C
IC50 [1]: 88 nM
IC50 [11]: 866 nM

CCS(=O)(=O)Nc1ccc(Nc2ccc([C@H](C)Nc3ccc(C#N)cn3)cc2)cc1N(C)C
IC50 [1]: 2770 nM

CCC(=O)Nc1cc(Nc2ccc([C@H](C)Nc3ncc(F)c(N4C(=O)OC[C@@H]4C(C)C)n3)cc2)ccc1N(C)C
IC50 [1]: 932 nM

C=CS(=O)(=O)Nc1ccc(Nc2ccc([C@H](C)Nc3ncc(F)c(N4C(=O)OC[C@@H]4C(C)C)n3)cc2)cc1N1CCN(CC)CC1
IC50 [1]: 245 nM
IC50 [11]: 864 nM

C=CC(=O)Nc1ccc(Nc2ccc([C@H](C)Nc3nccc(N4C(=O)OC[C@@H]4C(C)C)n3)cc2)cc1N1CCN(CC)CC1
IC50 [1]: 898 nM

CCC(=O)Nc1ccc(Nc2ccc([C@H](C)Nc3nccc(N4C(=O)OC[C@@H]4C(C)C)n3)cc2)cc1N1CCN(CC)CC1
IC50 [1]: 2760 nM

C=CC(=O)NC1CCN(c2ccc([C@H](C)Nc3ncc(F)c(N4C(=O)OC[C@@H]4C(C)C)n3)cc2)CC1
IC50 [1]: 187 nM
IC50 [11]: 462 nM

C=CS(=O)(=O)Nc1ccc(Nc2ccc([C@H](C)Nc3ccc(C#N)cn3)cc2)cc1N(C)C
IC50 [1]: 6320 nM

CCS(=O)(=O)NC1CCN(c2ccc([C@H](C)Nc3nccc(N4C(=O)OC[C@@H]4C(C)C)n3)cc2)CC1
IC50 [1]: 541 nM

C=CC(=O)Nc1cc(Nc2ccc([C@H](C)Nc3ncc(F)c(N4C(=O)OC[C@@H]4C(C)C)n3)cc2)ccc1N1CCOCC1
IC50 [1]: 205 nM
IC50 [11]: 288 nM

C=CS(=O)(=O)Nc1cc(Nc2ccc([C@H](C)Nc3ncc(F)c(N4C(=O)OC[C@@H]4C(C)C)n3)cc2)ccc1N(C)C
IC50 [1]: 151 nM
IC50 [11]: 367 nM

CCC(=O)NC1CCN(c2ccc([C@H](C)Nc3ncc(F)c(N4C(=O)OC[C@@H]4C(C)C)n3)cc2)CC1
IC50 [1]: 198 nM

CCC(=O)Nc1cc(Nc2ccc([C@H](C)Nc3ncc(F)c(N4C(=O)OC[C@@H]4C(C)C)n3)cc2)ccc1N1CCOCC1
IC50 [1]: 77 nM
IC50 [11]: 126 nM

C=CS(=O)(=O)NC1CCN(c2ccc([C@H](C)Nc3nccc(N4C(=O)OC[C@@H]4C(C)C)n3)cc2)CC1
IC50 [1]: 192 nM
IC50 [11]: 37 nM

C=CC(=O)Nc1ccc(Nc2ccc([C@H](C)Nc3ncc(F)c(N4C(=O)OC[C@@H]4C(C)C)n3)cc2)cc1N1CCOCC1
IC50 [1]: 976 nM
IC50 [11]: 331 nM

CCC(=O)NC1CCCN(c2ccc([C@H](C)Nc3ncc(F)c(N4C(=O)OC[C@@H]4C(C)C)n3)cc2)C1 (stereo partly drawn)
IC50 [1]: 670 nM

CC(C)[C@H]1COC(=O)N1c1nc(N[C@@H](C)c2ccc(Nc3ccc(NC(=O)CCl)c(N4CCOCC4)c3)cc2)ncc1F
IC50 [1]: > 10000 nM
IC50 [11]: 10000 nM
